Results on 26 molecules are retold here after patent US20250214942A1, “INHIBITORS OF RECEPTOR INTERACTING PROTEIN KINASE I FOR THE TREATMENT OF DISEASE” (Board of Regents, The University of Texas System, priority 2019, published 2025).

SMILES strings stand for the structures.

The subject of this assay is human monocytic cell line U937. Kind of assay: Human U937 cellular necroptosis assay (TNFalpha + z-VAD-FMK, Cell Titer-Glo viability). It counts as cell-based. As to conditions: Homo sapiens, U-937, 22 h, U937 cells, 25 ng/mL human TNFalpha + 25 μM z-VAD-FMK, read-out: hU937 Avg IC50. The method, then: The human monocytic cell line U937 (CRL-1593.2) was purchased from ATCC. The cells were routinely maintained in RPMI-1640 Medium (Gibco, Catalog #11875-093) supplemented with 10% heat inactivated fetal bovine serum (Gibco, Catalog #16140-071), 100 units/mL penicillin and 100 μg/mL streptomycin (Gibco, Catalog #15140-122), in a humidified incubator (37° C., 5% CO2). For the assay, cells were resuspended in RPMI-1640 phenol red free Media (Gibco, Catalog #11835-030) supplemented with 10% fetal bovine serum (Sigma, Catalog #F2442), 100 units/mL penicillin and 100 ug/mL streptomycin. Cells were stimulated with 25 ng/mL human TNFalpha (Cell Sciences, Catalog #CSI15659B) and 25 μM z-VAD-FMK (R&D Systems, Catalog #FMK001) followed by seeding 5000 cells per well in a volume of 40 μL to a white, CulturPlate-384 (Perkin Elmer, Catalog #6007680). Stock solutions of the test compounds were prepared in 100% DMSO (Sigma, Catalog #D2650) and serially diluted 1:3 using 100% DMSO. Compounds were additionally diluted 1:40 in assay medium, and 10 μL/well was transferred to the plate. Following the compound addition the plate was incubated at 37° C. and 5% CO2 for 22 h. After 22 h, viability was assessed with the addition of 20 μL of Cell Titer-Glo 2.0 (Promega, Catalog #G9243). The tissue culture plate was shaken on an orbital shaker at 300 RPM for 15 minutes at rt in the dark. Luminescence was measured using a PerkinElmer Envision™ plate reader. IC50 values were calculated using a four-parameter logistic curve fit using Genedata Screener software. Results are shown below in Table 3, where the average value across multiple runs is given.
With `N#Cc1ccc(OCC23CC(C(=O)N4N=CCC4c4cc(F)c(CO)c(F)c4)(C2)C3)nc1` (centres unmarked) [Example 342, 6-((3-(5-(3,5-difluoro-4-(hydroxymethyl)phenyl)-4,5-dihydro-1H-pyrazole-1-carbonyl)bicyclo[1.1.1]pentan-1-yl)methoxy)nicotinonitrile], the IC50 turned out to be 380 nM.

In the case of `Cc1ccc(C2CC=NN2C(=O)C23CC(COc4ccc(C#N)cn4)(C2)C3)c(F)c1` (centres unmarked) [Example 271, 6-((3-(5-(2-fluoro-4-methyl-phenyl)-4,5-dihydro-1H-pyrazole-1-carbonyl)bicyclo-[1.1.1]pentan-1-yl)methoxy)-nicotinonitrile], the IC50 turned out to be 20 nM.

As to `COc1ccc(C(O)C23CC(C(=O)N4N=CCC4c4cc(F)cc(F)c4)(C2)C3)cc1` (centres unmarked) [Example 231, (5-(3,5-difluorophenyl)-4,5-dihydro-1H-pyrazol-1-yl)(3-(hydroxy(4-methoxyphenyl)-methyl)bicyclo[1.1.1]pentan-1-yl)methanone], the IC50 stood at 3040 nM.

As for `Cc1nc(OCC23CC(C(=O)N4N=CCC4c4cnc(C#N)cn4)(C2)C3)ccc1F` (centres unmarked) [Example 313, 5-(1-(3-(((5-fluoro-6-methylpyridin-2-yl)oxy)-methyl)bicyclo[1.1.1]pentane-1-carbonyl)-4,5-dihydro-1H-pyrazol-5-yl)pyrazine-2-carbonitrile], the IC50 amounted to 251 nM.

For `N#Cc1ccc2c(cnn2CC23CC(C(=O)N4C[C@@H](O)C[C@H]4c4cccc(F)c4)(C2)C3)c1` (single isomer, unassigned) [Example 262], the IC50 was 4670 nM.

As to `N#Cc1cncc(C2CC=NN2C(=O)C23CC(COc4cnc(C#N)cn4)(C2)C3)c1` (centres unmarked) [Example 284, 5-((3-(5-(5-cyanopyridin-3-yl)-4,5-dihydro-1H-pyrazole-1-carbonyl)bicyclo[1.1.1]pentan-1-yl)methoxy)pyrazine-2-carbonitrile], the IC50 came out at 161 nM.

Regarding `Cn1cc(-c2ccc(OCC34CC(C(=O)N5N=CCC5c5cc(F)cc(F)c5)(C3)C4)c(Cl)c2)cn1` (centres unmarked) [Example 341, (3-((2-chloro-4-(1-methyl-1H-pyrazol-4-yl)phenoxy)methyl)-bicyclo[1.1.1]pentan-1-yl)(5-(3,5-difluorophenyl)-4,5-dihydro-1H-pyrazol-1-yl)-methanone], the concentration for half-maximal inhibition (IC50) worked out at 23 nM.

With `N#Cc1cc2cn(CC34CC(C(=O)N5N=CCC5c5cc(F)cc(F)c5)(C3)C4)nc2cc1Cl` (centres unmarked) [Example 220, 6-chloro-2-((3-(5-(3,5-difluorophenyl)-4,5-dihydro-1H-pyrazole-1-carbonyl)-bicyclo[1.1.1]pentan-1-yl)-methyl)-2H-indazole-5-carbonitrile], the IC50 amounted to 312 nM.

Take `Cc1cc(F)c(C2CC=NN2C(=O)C23CC(COc4cnc(C#N)cn4)(C2)C3)cc1F` (centres unmarked) [Example 195, 5-((3-(5-(2,5-Difluoro-4-methylphenyl)-4,5-dihydro-1H-pyrazole-1-carbonyl)bicyclo[1.1.1]pentan-1-yl)methoxy) pyrazine-2-carbonitrile]: the IC50 worked out at 1.5 nM.

For `Cc1ccc2c(cnn2CC23CC(C(=O)N4N=CCC4c4cc(F)cc(F)c4)(C2)C3)n1` (centres unmarked) [Example 165, (5-(3,5-difluorophenyl)-4,5-dihydro-1H-pyrazol-1-yl)(3-((5-methyl-1H-pyrazolo[4,3-b]pyridin-1-yl)methyl)-bicyclo[1.1.1]pentan-1-yl)methanone], the IC50 came to 193 nM.

`N#Cc1cnc2c(ccn2CC23CC(C(=O)N4N=CCC4c4cc(F)cc(F)c4)(C2)C3)n1` (centres unmarked) [Example 211, 5-((3-(5-(3,5-difluorophenyl)-4,5-dihydro-1H-pyrazole-1-carbonyl)bicyclo[1.1.1]pentan-1-yl)methyl)-5H-pyrrolo[2,3-b]pyrazine-2-carbonitrile]: the IC50 amounted to 16 nM.

On to `N#Cc1cc2cnn(CC34CC(C(=O)N5N=CCC5c5cc(F)cc(F)c5)(C3)C4)c2cc1Cl` (centres unmarked) [Example 214, 6-chloro-1-((3-(5-(3,5-difluorophenyl)-4,5-dihydro-1H-pyrazole-1-carbonyl)-bicyclo[1.1.1]pentan-1-yl)-methyl)-1H-indazole-5-carbonitrile], for which the concentration for half-maximal inhibition (IC50) came to 71 nM.

As to `N#Cc1ccc2c(cnn2CC23CC(C(=O)N4N=CCC4c4ncc5ccccn45)(C2)C3)c1` (centres unmarked) [Example 247, 1-((3-(5-(imidazo[1,5-a]-pyridin-3-yl)-4,5-dihydro-1H-pyrazole-1-carbonyl)bicyclo[1.1.1]pentan-1-yl)methyl)-1H-indazole-5-carbonitrile], the IC50 was determined as 81 nM.

For `Cc1ncc(C2CC=NN2C(=O)C23CC(Cn4ncc5cc(C#N)ccc54)(C2)C3)cc1F` (centres unmarked) [Example 246, 1-((3-(5-(5-fluoro-6-methyl-pyridin-3-yl)-4,5-dihydro-1H-pyrazole-1-carbonyl)bicyclo-[1.1.1]pentan-1-yl)methyl)-1H-indazole-5-carbonitrile], the IC50 was 73 nM.

Regarding `N#Cc1ccc2c(cnn2CC23CC(C(=O)N4N=CCC4c4ccc(F)cc4)(C2)C3)c1` (centres unmarked) [Example 244, 1-((3-(5-(4-fluorophenyl)-4,5-dihydro-1H-pyrazole-1-carbonyl)bicyclo[1.1.1]pentan-1-yl)methyl)-1H-indazole-5-carbonitrile], the IC50 is 37 nM.

With `Cc1ccc(C2CC=NN2C(=O)C23CC(COc4cnc(C#N)cn4)(C2)C3)cc1F` (centres unmarked) [Example 269, 5-((3-(5-(3-fluoro-4-methyl-phenyl)-4,5-dihydro-1H-pyrazole-1-carbonyl)bicyclo-[1.1.1]pentan-1-yl)-methoxy)pyrazine-2-carbonitrile], the IC50 worked out at 5.4 nM.

Regarding `Cc1cc(F)c(C2CC=NN2C(=O)C23CC(COc4cnc(C#N)cn4)(C2)C3)c(F)c1` (centres unmarked) [Example 304, 5-((3-(5-(2,6-difluoro-4-methylphenyl)-4,5-dihydro-1H-pyrazole-1-carbonyl)-bicyclo[1.1.1]pentan-1-yl)-methoxy)pyrazine-2-carbonitrile], the half-inhibitory concentration (IC50) worked out at 6 nM.

As to `N#Cc1cnc(OCC23CC(C(=O)N4N=CCC4c4cccc(Cl)c4Cl)(C2)C3)cn1` (centres unmarked) [Example 311, 5-((3-(5-(2,3-dichlorophenyl)-4,5-dihydro-1H-pyrazole-1-carbonyl)bicyclo[1.1.1]pentan-1-yl)methoxy)pyrazine-2-carbonitrile], the IC50 came out at 40 nM.

As to `COc1cc(C(F)C23CC(C(=O)N4N=CCC4c4cc(F)cc(F)c4)(C2)C3)ncn1` (centres unmarked) [Example 229, (5-(3,5-difluorophenyl)-4,5-dihydro-1H-pyrazol-1-yl)(3-(fluoro(6-methoxypyrimidin-4-yl)methyl)bicyclo[1.1.1]-pentan-1-yl)methanone], the IC50 stood at 5060 nM.

Turning to `COc1cc(C(O)C23CC(C(=O)N4N=CCC4c4cc(F)cc(F)c4)(C2)C3)ncn1` (centres unmarked) [Example 232, (5-(3,5-difluorophenyl)-4,5-dihydro-1H-pyrazol-1-yl)(3-(hydroxy(6-methoxy-pyrimidin-4-yl)methyl)-bicyclo[1.1.1]pentan-1-yl)-methanone], the IC50 was 8110 nM.

As for `N#Cc1ccc(OCC23CC(C(=O)N4N=CCC4c4ncc(F)cc4F)(C2)C3)nc1` (centres unmarked) [Example 291, 6-((3-(5-(3,5-difluoropyridin-2-yl)-4,5-dihydro-1H-pyrazole-1-carbonyl)bicyclo-[1.1.1]pentan-1-yl)methoxy)-nicotinonitrile], the IC50 amounted to 620 nM.

Consider `N#Cc1ccc(OCC23CC(C(=O)N4N=CCC4c4cc(F)cc(F)c4)(C2)C3)cn1` (centres unmarked) [Example 224, 5-((3-(5-(3,5-difluorophenyl)-4,5-dihydro-1H-pyrazole-1-carbonyl)bicyclo[1.1.1]pentan-1-yl)methoxy)picolinonitrile], for which the IC50 was determined as 51 nM.

Regarding `O=C(N1N=CCC1c1cc(F)cc(F)c1)C12CC(C(F)c3cc(F)cc(Cl)c3)(C1)C2` (centres unmarked) [Example 227, (3-((3-chloro-5-fluorophenyl-)fluoromethyl)bicyclo[1.1.1]-pentan-1-yl)(5-(3,5-difluoro-phenyl)-4,5-dihydro-1H-pyrazol-1-yl)methanone], the IC50 came out at 133 nM.

Consider `N#Cc1ccc(OCC23CC(C(=O)N4N=CCC4c4cccc(Cl)c4Cl)(C2)C3)nc1` (centres unmarked) [Example 290, 6-((3-(5-(2,3-dichlorophenyl)-4,5-dihydro-1H-pyrazole-1-carbonyl)bicyclo[1.1.1]pentan-1-yl)methoxy)nicotinonitrile], for which the IC50 came out at 445 nM.

Consider `Cn1cc(-c2cnc(OCC34CC(C(=O)N5N=CCC5c5cc(F)cc(F)c5)(C3)C4)cn2)cn1` (centres unmarked) [Example 344, (5-(3,5-difluorophenyl)-4,5-dihydro-1H-pyrazol-1-yl)(3-(((5-(1-methyl-1H-pyrazol-4-yl)pyrazin-2-yl)oxy)methyl)-bicyclo[1.1.1]pentan-1-yl)methanone], for which the IC50 stood at 56 nM.

Consider `C[C@@H](c1c(F)cccc1F)N(C)C(=O)C12CC(COc3cnc(C#N)cn3)(C1)C2` [Example 292, (S)-3-(((5-cyanopyrazin-2-yl)oxy)methyl)-N-(1-(2,6-difluorophenyl)ethyl)-N-methylbicyclo[1.1.1]pentane-1-carboxamide], for which the IC50 worked out at 956 nM.
